Data from patent US7704723B2, “Isolation and characterization of novel clostridial species” (The Board of Regents For Oklahoma State University, priority 2006, dated 2010).
Marks after values point to notes of the source that are not given here.

What was measured:
[1] = tested on: Clostridium ragsdalei strain P11; experiment: Growth of strain P11 on organic and gaseous substrates as sole carbon and energy sources; format: cell-based; conditions: for Substrate utilization, C. ragsdalei: strain P11, growth on substrate as sole carbon and energy source, final OD600; for Growth with substrate: Clostridium ragsdalei, malate and formate examined at pH 5.0-6.5
Procedure: (§1) Except for the deletion of NaHCO3 and an initial pH 6.3, growth on organic and gaseous substrates was performed as previously described (Tanner et. al., 1993). Resazurin (1 mg/L) was used as the redox indicator. Purified agar was added to the medium at a concentration of 2% for colony morphology description (Table 5). Heat labile substrates were filter sterilized (not autoclaved) and added from sterile stock solutions to a final concentration of 5 g/L before inoculation. The optimum temperature and pH (initial pH) was determined in medium containing fructose as the substrate. For determination of the optimum pH, media was buffered with HOMOPIPES (homopiperazine-N,N′-bis-2-[ethanesulfonic acid] (Research Organics, Cleveland, Ohio), MES (2-[N-morpholino]ethanesulfonic acid), or TES (N-tris [hydroxymethyl]methyl-2-aminoethanesulfonic acid) at (1.0 g/L). A 0.1 ml (˜2%) inoculum of fructose-grown cells was used to initiate growth. All media components used in these experiments were obtained from Sigma unless otherwise noted (Sigma Chemical Co., St. Louis, Mo.).
(§2) Analytical methods. […] For the substrate malate, utilization was analyzed by HPLC (“high-performance liquid chromatography”) equipped with a UV detector set at 214 nm using a Alltech, Prevail Organic Acid column (4.6×150 mm, 5 μm; Alltech, Deerfield, Mich.) with a mobile phase of 25 mM KH2PO4, pH 2.5 and 10% (v/v) methanol.

[2] = tested on: Clostridium ljungdahlii strain PETC; experiment: Growth of reference strain PETC on substrates as sole carbon and energy sources; format: cell-based; conditions: for Substrate utilization, C. ljungdahlii: strain PETC, growth on substrate as sole carbon and energy source, final OD600
Description: Organisms. Clostridium ljundahlii strain PETC was obtained from a fructose stock culture maintained by Dr. Ralph S. Tanner and was used as the reference control strain. Strain P11 was obtained from an anaerobic enrichment inoculated with fresh water sediment from the Duck Pond at the University of Oklahoma by a procedure described previously (Bryant, 1972) under an atmosphere of CO:N2:CO2 (75:15:10) and an initial pH of 6.0. The carbon monoxide oxidizing clostridium described within was named Clostridium ragsdalei. This bacterium was designated strain P11 and deposited with the American Type Culture Collection as strain ATCC BAA-622.
as §1, §2

Compound | Substrate utilization, C. ragsdalei [1] | Substrate utilization, C. ljungdahlii [2] | Growth with substrate [1] | Growth with malate as the sole carbon source after adaptation ([2]; after incubation of about thirty days, pH 5.0-6.5) | Doubling time ([1]; strain P11 grown with the substrate under optimal conditions)
OC[C@H]1O[C@H](OCC2O[C@@H](O)[C@H](O)[C@@H](O)[C@@H]2O)[C@H](O)[C@@H](O)[C@H]1O (stereo partly shown) [Melibiose] | − | − |  |  | 
N#C[C@H](O[C@@H]1O[C@H](CO[C@@H]2O[C@H](CO)[C@@H](O)[C@H](O)[C@H]2O)[C@@H](O)[C@H](O)[C@H]1O)c1ccccc1 [Amygdalin] | − | − |  |  | 
O=C([O-])CCC(=O)[O-].[Na+].[Na+] [Na-Succinate] | − | − |  |  | 
N[C@@H](CO)C(=O)O [Serine] |  |  | chemoorganotrophic growth was observed |  | 
C[C@H](N)C(=O)O [Alanine] |  |  | chemoorganotrophic growth was observed |  | 
CCC(=O)[O-].[Na+] [Na-Propionate] | − | − |  |  | 
O=C[C@H](O)[C@H](O)CO [Erythrose] | − | − |  |  | 
Starch | − | − |  |  | 
O=C[C@@H](O)[C@H](O)[C@H](O)CO [Arabinose] | − |  |  |  | 
O=C(O)/C=C\C(=O)O [Maleic acid] | − | − |  |  | 
O=C[C@H](O)[C@@H](O)[C@@H](O)[C@H](O)CO [Galactose] | − | − |  |  | 
O[C@H]1[C@H](O)[C@@H](O)[C@H](O)[C@@H](O)[C@H]1O [Inositol] | − | − |  |  | 
CC(O)C(=O)[O-].[Na+] (stereo not shown) [Na-Lactate] | − | − |  |  | 
OC[C@H]1O[C@@](CO)(O[C@H]2O[C@H](CO)[C@@H](O)[C@H](O)[C@H]2O)[C@@H](O[C@H]2O[C@H](CO)[C@@H](O)[C@H](O)[C@H]2O)[C@@H]1O [Melizitose] | − | − |  |  | 
N=C(N)NCCC[C@H](N)C(=O)O [Arginine] | − |  |  |  | 
Pectin | − | − |  |  | 
O=C([O-])CC(O)(CC(=O)[O-])C(=O)[O-].[Na+].[Na+].[Na+] [Na-Citrate] | − | +* (positive (indicates a final OD600 of greater than or equal to 0.1.)) |  |  | 
O=C(O)CO [Glycolic acid] | − | − |  |  | 
CO [Methanol] | − | − |  |  | 
OC[C@H]1O[C@H](O[C@H]2[C@H](O)[C@@H](O)[C@H](O)O[C@@H]2CO)[C@H](O)[C@@H](O)[C@@H]1O [Maltose] | − | − |  |  | 
C[C@H](O)[C@H](O)[C@@H](O)[C@@H](O)C=O [Rhamnose] | − |  |  |  | 
Glycogen | − | − |  |  | 
O=C(CO)[C@@H](O[C@H]1O[C@H](CO)[C@@H](O)[C@H](O)[C@H]1O)[C@H](O)[C@H](O)CO [Turanose] | − | − |  |  | 
O=C([O-])/C=C/C(=O)[O-].[Na+].[Na+] [Na-Fumarate] | − |  |  |  | 
NC(=O)CC[C@H](N)C(=O)O [Glutamine] | − | − |  |  | 
O=C[C@H](O)[C@@H](O)CO [L (+) Threose] | − | − |  |  | 

Compound | Substrate utilization, C. ragsdalei [1] | Substrate utilization, C. ljungdahlii [2] | Growth with substrate [1] | Growth with malate as the sole carbon source after adaptation ([2]; after incubation of about thirty days, pH 5.0-6.5) | Doubling time ([1]; strain P11 grown with the substrate under optimal conditions)
O=C[O-].[Na+] [Na-Formate] | − | − | did not initially support growth |  | 
OC[C@H]1O[C@@](CO)(O[C@H]2O[C@H](CO)[C@@H](O)[C@H](O)[C@H]2O)[C@@H](O)[C@@H]1O [Sucrose] |  |  | chemoorganotrophic growth was observed |  | 
O=C(O)CCC(=O)C(=O)O [alpha-ketoglutarate] | − | + (positive (indicates a final OD600 of greater than or equal to 0.1.)) |  |  | 
N[C@@H](Cc1c[nH]cn1)C(=O)O [Histidine] | − |  |  |  | 
O=C(O)CC(O)C(=O)O (stereo not shown) [Malic acid] | − | − | did not initially support growth | able to grow | 
CCCO [1-Propanol] | + (positive (indicates a final OD600 of greater than or equal to 0.1.)) | +^† (positive (indicates a final OD600 of greater than or equal to 0.1.)) | chemoorganotrophic growth was observed |  | 
OC[C@H]1O[C@@H](O[C@H]2[C@H](O)[C@@H](O)C(O)O[C@@H]2CO)[C@H](O)[C@@H](O)[C@H]1O (stereo partly shown) [Lactose] | − | − |  |  | 
C[N+](C)(C)CC(=O)O [Betaine] | − | − |  |  | 
OC[C@H]1O[C@H](O[C@H]2O[C@H](CO)[C@@H](O)[C@H](O)[C@H]2O)[C@H](O)[C@@H](O)[C@@H]1O [Trehalose] | − | − |  |  | 
N[C@@H](CCC(=O)O)C(=O)O [Glutamate] | + (positive (indicates a final OD600 of greater than or equal to 0.1.)) | +^† (positive (indicates a final OD600 of greater than or equal to 0.1.)) | chemoorganotrophic growth was observed |  | 
OC[C@@H](O)[C@@H](O)[C@H](O)[C@@H](O)CO [Sorbitol] | − | − |  |  | 
OC[C@H]1O[C@@H](O[C@H]2[C@H](O)[C@@H](O)[C@H](O)O[C@@H]2CO)[C@H](O)[C@@H](O)[C@@H]1O [Cellibiose] | − | − |  |  | 
Cellulose | − | − |  |  | 
OCc1ccccc1O[C@@H]1O[C@H](CO)[C@@H](O)[C@H](O)[C@H]1O [Salicin] | − | − |  |  | 
O=C[C@@H](O)[C@H](O)CO [D (−) Threose] |  |  | chemoorganotrophic growth was observed |  | 
O=C(O)[C@H](O)[C@@H](O)[C@H](O)[C@H](O)CO [Gluconic acid] | − |  |  |  | 
CC(C)O [Iso-propanol] | − | − |  |  | 
Trimethoxybenzoic acid | − | − |  |  | 
CC(=O)[O-].[Na+] [Na-Acetate] | − | − |  |  | 
O=C[C@H](O)[C@@H](O)[C@H](O)CO [Xylose] |  |  | chemoorganotrophic growth was observed |  | 0.220 h⁻¹
O=C(CO)[C@@H](O)[C@H](O)[C@H](O)CO [Fructose] |  |  | chemoorganotrophic growth was observed |  | 
Inulin | − | − |  |  | 
OCC(O)CO [Glycerol] | − | − |  |  | 
C[C@H](O)[C@@H](O)[C@@H](O)[C@H](O)C=O [Fucose] | − | − |  |  | 
OC[C@@H](O)[C@@H](O)[C@H](O)[C@H](O)CO [Mannitol] | − | − |  |  | 
CC(=O)C(=O)O [Na-Pyruvate] |  |  | chemoorganotrophic growth was observed |  | 
